In US4007179A, “Oxoindanylpropionic acids and process for the preparation thereof” (Sankyo Company Limited, priority 1975, dated 1977):

How the values were obtained:
Format in all cases: in vivo
[1] = Anti-inflammatory activity: carrageenin edema test in rats; conditions: Rattus norvegicus, po, read-out: ID50 Anti-inflammatory
From the text: Anti-inflammatory activity
Tested by carrageenin edema test in rats [C.

[2] = Antipyretic activity: TTG-induced fever test in guinea pigs; conditions: Cavia porcellus, po, read-out: ID50 Antipyretic
From the text: Antipyretic activity Tested by TTG-induced fever test in guinea pigs [ modified methodof S. Kobayashi, H. Takagi; Jap.

[3] = Analgesic activity: thermal pain test in rats; conditions: Rattus norvegicus, po, read-out: ID50 Analgesic
[4] = TTG-induced fever test in guinea pigs

SMILES: CCC1Cc2ccc(C(C)C(=O)O)cc2C1 (stereo not drawn) [2-(2-Ethylindan-5-yl)propionic acid]
- ED50 ([1]; carrageenin edema test in rats): 10.3 mg/kg
- ED50 [2, 4]: 1.7 mg/kg
- ED50 ([3]; thermal pain test in rats): 10.5 mg/kg

SMILES: CC(C(=O)O)c1ccc2c(c1)CC(C(C)C)C2 (stereo not drawn) [2-(2-Isopropylindan-5-yl)propionic acid]
- ED50 ([1]; carrageenin edema test in rats): 7.1 mg/kg
- ED50 [2, 4]: 1.8 mg/kg
- ED50 ([3]; thermal pain test in rats): 2.5 mg/kg

SMILES: CC(=O)Oc1ccccc1C(=O)O [Acetylsalicylic acid, reference compound]
- ED50 [1]: 133 mg/kg
- ED50 [2]: 194 mg/kg
- ED50 [3]: 81 mg/kg
